Experimental data: ChEMBL document CHEMBL2396621, “Design, synthesis and biological evaluation of 2-mercapto-3-phenethylquinazoline bearing anilide fragments as potential antitumor agents: molecular docking study” (2013)

What was measured:
Format in all cases: functional
MDA-MB-435 = assay: Cytotoxicity against human MDA-MB-435 cells assessed as growth inhibition at 10 uM after 48 hrs by coulter counter analysis; settings: MDA-MB-435, 48 h, read-out: GI
UACC-62 = assay: Cytotoxicity against human UACC62 cells assessed as growth inhibition at 10 uM after 48 hrs by coulter counter analysis; settings: UACC-62, 48 h, read-out: GI
RXF 393 = assay: Cytotoxicity against human RXF393 cells assessed as growth inhibition at 10 uM after 48 hrs by coulter counter analysis; settings: RXF 393, 48 h, read-out: GI
CAKI-1 = assay: Cytotoxicity against human Caki1 cells assessed as growth inhibition at 10 uM after 48 hrs by coulter counter analysis; settings: CAKI-1, 48 h, read-out: GI
[1] = Cytotoxicity against human EKVX cells assessed as growth inhibition at 10 uM after 48 hrs by coulter counter analysis; settings: read-out: GI
ACHN = assay: Cytotoxicity against human ACHN cells assessed as growth inhibition at 10 uM after 48 hrs by coulter counter analysis; settings: read-out: GI
PC-3 = assay: Cytotoxicity against human PC3 cells assessed as growth inhibition at 10 uM after 48 hrs by coulter counter analysis; settings: PC-3, 48 h, read-out: GI
LOX IMVI = assay: Cytotoxicity against human LOXIMVI cells assessed as growth inhibition at 10 uM after 48 hrs by coulter counter analysis; settings: read-out: GI
A498 = assay: Cytotoxicity against human A498 cells assessed as growth inhibition at 10 uM after 48 hrs by coulter counter analysis; settings: A498, 48 h, read-out: GI
HT-29 = assay: Cytotoxicity against human HT-29 cells assessed as growth inhibition at 10 uM after 48 hrs by coulter counter analysis; settings: HT-29, 48 h, read-out: GI
MDA-MB-231 = assay: Cytotoxicity against human MDA-MB-231 cells assessed as growth inhibition at 10 uM after 48 hrs by coulter counter analysis; settings: MDA-MB-231, 48 h, read-out: GI
U-251 = assay: Cytotoxicity against human U251 cells assessed as growth inhibition at 10 uM after 48 hrs by coulter counter analysis; settings: U-251, 48 h, read-out: GI
NCI-H460 = assay: Cytotoxicity against human NCI-H460 cells assessed as growth inhibition at 10 uM after 48 hrs by coulter counter analysis; settings: NCI-H460, 48 h, read-out: GI
UACC-257 = assay: Cytotoxicity against human UACC257 cells assessed as growth inhibition at 10 uM after 48 hrs by coulter counter analysis; settings: UACC-257, 48 h, read-out: GI
TK-10 = assay: Cytotoxicity against human TK10 cells assessed as growth inhibition at 10 uM after 48 hrs by coulter counter analysis; settings: TK-10, 48 h, read-out: GI
[2] = Cytotoxicity against human NCI-ADR-RES cells assessed as growth inhibition at 10 uM after 48 hrs by coulter counter analysis; settings: read-out: GI
786-0 = assay: Cytotoxicity against human 786-0 cells assessed as growth inhibition at 10 uM after 48 hrs by coulter counter analysis; settings: 786-0, 48 h, read-out: GI
NCI-H23 = assay: Cytotoxicity against human NCI-H23 cells assessed as growth inhibition at 10 uM after 48 hrs by coulter counter analysis; settings: NCI-H23, 48 h, read-out: GI
OVCAR-4 = assay: Cytotoxicity against human OVCAR4 cells assessed as growth inhibition at 10 uM after 48 hrs by coulter counter analysis; settings: OVCAR-4, 48 h, read-out: GI
UO-31 = assay: Cytotoxicity against human UO31 cells assessed as growth inhibition at 10 uM after 48 hrs by coulter counter analysis; settings: UO-31, 48 h, read-out: GI
HCT-15 = assay: Cytotoxicity against human HCT15 cells assessed as growth inhibition at 10 uM after 48 hrs by coulter counter analysis; settings: HCT-15, 48 h, read-out: GI
SW-620 = assay: Cytotoxicity against human SW620 cells assessed as growth inhibition at 10 uM after 48 hrs by coulter counter analysis; settings: SW-620, 48 h, read-out: GI
HCC 2998 = assay: Cytotoxicity against human HCC2998 cells assessed as growth inhibition at 10 uM after 48 hrs by coulter counter analysis; settings: HCC 2998, 48 h, read-out: GI
DU-145 = assay: Cytotoxicity against human DU145 cells assessed as growth inhibition at 10 uM after 48 hrs by coulter counter analysis; settings: DU-145, 48 h, read-out: GI
NCI-H522 = assay: Cytotoxicity against human NCI-H522 cells assessed as growth inhibition at 10 uM after 48 hrs by coulter counter analysis; settings: NCI-H522, 48 h, read-out: GI
SF-539 = assay: Cytotoxicity against human SF539 cells assessed as growth inhibition at 10 uM after 48 hrs by coulter counter analysis; settings: SF-539, 48 h, read-out: GI
SK-OV-3 = assay: Cytotoxicity against human SKOV3 cells assessed as growth inhibition at 10 uM after 48 hrs by coulter counter analysis; settings: SK-OV-3, 48 h, read-out: GI
KM12 = assay: Cytotoxicity against human KM12 cells assessed as growth inhibition at 10 uM after 48 hrs by coulter counter analysis; settings: KM12, 48 h, read-out: GI
SF-295 = assay: Cytotoxicity against human SF295 cells assessed as growth inhibition at 10 uM after 48 hrs by coulter counter analysis; settings: SF-295, 48 h, read-out: GI
M14 = assay: Cytotoxicity against human M14 cells assessed as growth inhibition at 10 uM after 48 hrs by coulter counter analysis; settings: M14, 48 h, read-out: GI
Malme-3M = assay: Cytotoxicity against human MALME-3M cells assessed as growth inhibition at 10 uM after 48 hrs by coulter counter analysis; settings: read-out: GI
Hs-578T = assay: Cytotoxicity against human Hs578T cells assessed as growth inhibition at 10 uM after 48 hrs by coulter counter analysis; settings: read-out: GI
NCI-H226 = assay: Cytotoxicity against human NCI-H226 cells assessed as growth inhibition at 10 uM after 48 hrs by coulter counter analysis; settings: NCI-H226, 48 h, read-out: GI
IGROV-1 = assay: Cytotoxicity against human IGROV1 cells assessed as growth inhibition at 10 uM after 48 hrs by coulter counter analysis; settings: IGROV-1, 48 h, read-out: GI
HOP-62 = assay: Cytotoxicity against human HOP62 cells assessed as growth inhibition at 10 uM after 48 hrs by coulter counter analysis; settings: HOP-62, 48 h, read-out: GI
COLO 205 = assay: Cytotoxicity against human COLO205 cells assessed as growth inhibition at 10 uM after 48 hrs by coulter counter analysis; settings: COLO 205, 48 h, read-out: GI
OVCAR-5 = assay: Cytotoxicity against human OVCAR5 cells assessed as growth inhibition at 10 uM after 48 hrs by coulter counter analysis; settings: OVCAR-5, 48 h, read-out: GI

## O=C(CSc1nc2ccccc2c(=O)n1CCc1ccccc1)Nc1ccc(Cl)cc1
MDA-MB-435
  inhibition of growth at 10 µM: 13%
UACC-62
  inhibition of growth at 10 µM: 34%
RXF 393
  inhibition of growth at 10 µM: 22%
CAKI-1
  inhibition of growth at 10 µM: 42%
[1]
  inhibition of growth at 10 µM: 29%
ACHN
  inhibition of growth at 10 µM: 22%
PC-3
  inhibition of growth at 10 µM: 30%
LOX IMVI
  inhibition of growth at 10 µM: 23%
A498
  inhibition of growth at 10 µM: < 10%
HT-29
  inhibition of growth at 10 µM: < 10%
MDA-MB-231
  inhibition of growth at 10 µM: 37%
U-251
  inhibition of growth at 10 µM: 25%
NCI-H460
  inhibition of growth at 10 µM: 32%
UACC-257
  inhibition of growth at 10 µM: 18%
TK-10
  inhibition of growth at 10 µM: 19%
[2]
  inhibition of growth at 10 µM: 21%
786-0
  inhibition of growth at 10 µM: 13%
NCI-H23
  inhibition of growth at 10 µM: 21%
OVCAR-4
  inhibition of growth at 10 µM: 14%
UO-31
  inhibition of growth at 10 µM: 28%
HCT-15
  inhibition of growth at 10 µM: 16%
SW-620
  inhibition of growth at 10 µM: 11%
HCC 2998
  inhibition of growth at 10 µM: < 10%
DU-145
  inhibition of growth at 10 µM: 12%
NCI-H522
  inhibition of growth at 10 µM: 45%
SF-539
  inhibition of growth at 10 µM: 41%
SK-OV-3
  inhibition of growth at 10 µM: 43%
KM12
  inhibition of growth at 10 µM: 14%
SF-295
  inhibition of growth at 10 µM: 32%
M14
  inhibition of growth at 10 µM: < 10%
Malme-3M
  inhibition of growth at 10 µM: < 10%
Hs-578T
  inhibition of growth at 10 µM: 45%
NCI-H226
  inhibition of growth at 10 µM: 24%
IGROV-1
  inhibition of growth at 10 µM: 36%
HOP-62
  inhibition of growth at 10 µM: 40%
COLO 205
  inhibition of growth at 10 µM: 15%
OVCAR-5
  inhibition of growth at 10 µM: < 10%

## O=C(CSc1nc2ccccc2c(=O)n1CCc1ccccc1)Nc1ccc(F)cc1
MDA-MB-435
  inhibition of growth at 10 µM: < 10%
UACC-62
  inhibition of growth at 10 µM: 25%
RXF 393
  inhibition of growth at 10 µM: 13%
CAKI-1
  inhibition of growth at 10 µM: 22%
[1]
  inhibition of growth at 10 µM: 24%
ACHN
  inhibition of growth at 10 µM: 16%
PC-3
  inhibition of growth at 10 µM: 16%
LOX IMVI
  inhibition of growth at 10 µM: 18%
A498
  inhibition of growth at 10 µM: 10%
HT-29
  inhibition of growth at 10 µM: 10%
MDA-MB-231
  inhibition of growth at 10 µM: 22%
U-251
  inhibition of growth at 10 µM: 17%
NCI-H460
  inhibition of growth at 10 µM: < 10%
UACC-257
  inhibition of growth at 10 µM: < 10%
TK-10
  inhibition of growth at 10 µM: < 10%
[2]
  inhibition of growth at 10 µM: < 10%
786-0
  inhibition of growth at 10 µM: < 10%
NCI-H23
  inhibition of growth at 10 µM: 12%
OVCAR-4
  inhibition of growth at 10 µM: < 10%
UO-31
  inhibition of growth at 10 µM: 31%
HCT-15
  inhibition of growth at 10 µM: 10%
SW-620
  inhibition of growth at 10 µM: < 10%
HCC 2998
  inhibition of growth at 10 µM: < 10%
DU-145
  inhibition of growth at 10 µM: < 10%
NCI-H522
  inhibition of growth at 10 µM: 31%
SF-539
  inhibition of growth at 10 µM: < 10%
SK-OV-3
  inhibition of growth at 10 µM: 25%
KM12
  inhibition of growth at 10 µM: < 10%
SF-295
  inhibition of growth at 10 µM: 13%
M14
  inhibition of growth at 10 µM: 18%
Malme-3M
  inhibition of growth at 10 µM: 11%
Hs-578T
  inhibition of growth at 10 µM: 16%
NCI-H226
  inhibition of growth at 10 µM: < 10%
IGROV-1
  inhibition of growth at 10 µM: 16%
HOP-62
  inhibition of growth at 10 µM: < 10%
COLO 205
  inhibition of growth at 10 µM: < 10%
OVCAR-5
  inhibition of growth at 10 µM: < 10%

## CC(=O)c1ccc(NC(=O)CSc2nc3ccccc3c(=O)n2CCc2ccccc2)cc1
MDA-MB-435
  inhibition of growth at 10 µM: 23%
UACC-62
  inhibition of growth at 10 µM: 28%
RXF 393
  inhibition of growth at 10 µM: < 10%
CAKI-1
  inhibition of growth at 10 µM: 16%
[1]
  inhibition of growth at 10 µM: 29%
ACHN
  inhibition of growth at 10 µM: 30%
PC-3
  inhibition of growth at 10 µM: 20%
LOX IMVI
  inhibition of growth at 10 µM: 25%
A498
  inhibition of growth at 10 µM: < 10%
HT-29
  inhibition of growth at 10 µM: 12%
MDA-MB-231
  inhibition of growth at 10 µM: 39%
U-251
  inhibition of growth at 10 µM: 10%
NCI-H460
  inhibition of growth at 10 µM: 31%
UACC-257
  inhibition of growth at 10 µM: 36%
TK-10
  inhibition of growth at 10 µM: < 10%
[2]
  inhibition of growth at 10 µM: 33%
786-0
  inhibition of growth at 10 µM: < 10%
NCI-H23
  inhibition of growth at 10 µM: 12%
OVCAR-4
  inhibition of growth at 10 µM: 25%
UO-31
  inhibition of growth at 10 µM: 10%
HCT-15
  inhibition of growth at 10 µM: 21%
SW-620
  inhibition of growth at 10 µM: 14%
HCC 2998
  inhibition of growth at 10 µM: < 10%
DU-145
  inhibition of growth at 10 µM: 11%
NCI-H522
  inhibition of growth at 10 µM: 51%
SF-539
  inhibition of growth at 10 µM: < 10%
SK-OV-3
  inhibition of growth at 10 µM: 17%
KM12
  inhibition of growth at 10 µM: 18%
SF-295
  inhibition of growth at 10 µM: 21%
M14
  inhibition of growth at 10 µM: 21%
Malme-3M
  inhibition of growth at 10 µM: 13%
Hs-578T
  inhibition of growth at 10 µM: 33%
NCI-H226
  inhibition of growth at 10 µM: 16%
IGROV-1
  inhibition of growth at 10 µM: 20%
HOP-62
  inhibition of growth at 10 µM: 22%
COLO 205
  inhibition of growth at 10 µM: 12%
OVCAR-5
  inhibition of growth at 10 µM: 10%
